The subject of data set [1] is HCV replicon (Genotype 1b). Kind of data set: Luciferase genotype 1b replicon potency assay. The class given is cell-based. Conditions: Hepatitis C virus, Huh-7; luciferase-reporter genotype 1b subgenomic replicon cell line (Huh7); Renilla luciferase reporter activity. How it is done:
(§1) Further to the above Examples, representative compounds, prepared according to the examples were tested for potency in an HCV replicon assay (Genotype 1b) for activity against the virus (EC50) and toxicity to the cells (CC50).
Huh7 Replicon Cell Lines and Cell Culture Conditions:
(§2) A luciferase-reporter genotype 1b subgenomic replicon cell line, and a genotype 1a full-length replicon cell line were obtained from Apath, LLC, Brooklyn, N.Y.: All cell lines were passaged twice a week by splitting 4 or 6 fold. Cells were maintained in DMEM-high glucose medium (HyClone, Logan, Utah) supplemented with 9% FBS (HyClone), 2 mM glutamine (Invitrogen, Carlsbad, Calif.), 100 U/mL PenStrep (Invitrogen). Media also contained 0.25 mg/mL of the antibiotic G-418 to maintain stable expression of the replicon (Invitrogen). Incubation was performed at 37° C. in 5% CO2 atmosphere. Replicon cell lines were used until they accumulated 15-to-18 passages, after which cells were restarted from the frozen stock. Seeding cell counts were routinely determined using an automatic Cedex HiRes cell counter (Flownomics Analytical Instruments, Madison, Wis.) or manually using INCYTO C—Chip™ Disposable Hemacytometers (Fisher Scientific, Pittsburgh, Pa.).
The anti-HCV assays were done accordingly:
Luciferase Genotype 1b Replicon Potency Assay.
Replicon cells were seeded into white 96-well plates (Nunc/VWR) at a density of 2×10^4 cells/well in medium without G-418. A Stacker Multidrop Liquid Dispenser (MTX Lab Systems, Vienna, Va.) was employed to ensure uniform and fast cell seeding into multiple plates. 18-24 h after cell plating, inhibitors were added and cells were incubated for additional 24, 48, or 72 h (as indicated). Compounds were tested in triplicates and quadruplicates at 3× or 4× serial dilutions over a range of 0.0001-to-10 μM concentrations. HCV replication was monitored by Renilla luciferase reporter activity assay using Renilla luciferase reporter (Promega, Madison, Wis.) and a Veritas Luminometer (Turner Biosystems, Sunnyvale, Calif.). 50% and 90% inhibitory concentration (IC50 and IC90) values were calculated as the concentration of compound that results correspondingly in 50% and 90% decreases in the reporter expression as compared to untreated cells. The values were determined by non-linear regression (four-parameter sigmoidal curve fitting) analysis.
(In general: Replicon systems follow genome replication, usually without infectious particles.)

Data set [2] can be described thus: Cytotoxicity assay (CellTiter-Glo). Type of data set: cell-based. Conditions: human, Huh7 HCV genotype 1b replicon cells; toxicity to the cells; 72 h incubation; CellTiter-Glo cell viability. How it is done: as §1, §2
The cell cytotoxicity assay data was obtained as described below:
Cells were seeded into 96-well plates at a density of 2×10^4 cells per well. 24 h after cell plating, 11 serial 2× compound dilutions, starting with 100 μM, were applied to the testing plates (3 repeats per compound dilution). Each testing plate was run with a “no-compound” control. Incubation with compounds was continued at 37° C. in a CO2 incubator for 72 h. To determine cell viability, the CellTiter-Glo® assay (Promega, Madison, Wis.) was performed according to the manufacturer's protocol. The compound concentration resulting in 50% luminescent signal was reported as the CC50 concentration.

In general, IC50 refers to the midpoint of a concentration-inhibition curve. For orientation: CC50 means the concentration at which the toxic effect on the cells reaches its halfway point. Low readings indicate greater toxicity to the cells, high ones lower toxicity to the cells. The molecule `COc1nc(N)nc2c1nc(I)n2[C@@H]1O[C@H](COP(=O)(N[C@@H](C)C(=O)OCc2ccccc2)N[C@@H](C)C(=O)OCc2ccccc2)[C@@H](O)[C@@]1(C)O` [Example 21, (2S,2′S)-Benzyl 2,2′-((((2R,3R,4R,5R)-5-(2-Amino-8-iodo-6-methoxy-9H-purin-9-yl)-3,4-dihydroxy-4-methyltetrahydrofuran-2-yl)methoxy)phosphoryl)bis(azanediyl)dipropanoate] yielded a half-maximal inhibitory concentration (IC50) in data set [1] of 0.046 µM. This molecule showed a CC50 at 72 h in data set [2] of 22 µM.

On to `COc1nc(N)nc2c1nc(I)n2[C@@H]1O[C@H](COP(=O)(N[C@@H](C)C(=O)OCCC(C)(C)C)N[C@@H](C)C(=O)OCCC(C)(C)C)[C@@H](O)[C@@]1(C)O` [Example 22, (2S,2′S)-Bis(3,3-Dimethylbutyl) 2,2′-((((2R,3R,4R,5R)-5-(2-Amino-8-iodo-6-methoxy-9H-purin-9-yl)-3,4-dihydroxy-4-methyltetrahydrofuran-2-yl)methoxy)phosphoryl)bis(azanediyl)dipropanoate], for which the IC50 in data set [1] turned out to be 0.072 µM. The same molecule returned a CC50 at 72 h in data set [2] of 11 µM.

The molecule `COc1nc(N)nc2c1nc(I)n2[C@@H]1O[C@H](COP(=O)(N[C@@H](C)C(=O)OCC(C)(C)C)N[C@@H](C)C(=O)OCC(C)(C)C)[C@@H](O)[C@@]1(C)O` [Example 23, (2S,2′S)-Neopentyl 2,2′-((((2R,3R,4R,5R)-5-(2-Amino-8-iodo-6-methoxy-9H-purin-9-yl)-3,4-dihydroxy-4-methyltetrahydrofuran-2-yl)methoxy)phosphoryl)bis(azanediyl)dipropanoate] came in with an IC50 in data set [1] of 0.11 µM. In data set [2], this molecule registered a half-maximal cytotoxic concentration (CC50) at 72 h of 53 µM.

As to `COc1nc(N)nc2c1nc(Br)n2[C@@H]1O[C@H](COP(=O)(N[C@@H](C)C(=O)OCC(C)(C)C)N[C@@H](C)C(=O)OCC(C)(C)C)[C@@H](O)[C@@]1(C)O` [Example 24, (2S,2′S)-Neopentyl 2,2′-((((2R,3R,4R,5R)-5-(2-Amino-8-bromo-6-methoxy-9H-purin-9-yl)-3,4-dihydroxy-4-methyltetrahydrofuran-2-yl)methoxy)phosphoryl)bis(azanediyl)dipropanoate], in data set [1], the IC50 is above 40 µM. In data set [2], this molecule registered a CC50 at 72 h above 100 µM.

In data set [1], `COc1nc(N)nc2c1nc(Cl)n2[C@@H]1O[C@H](COP(=O)(N[C@@H](C)C(=O)OCC(C)(C)C)N[C@@H](C)C(=O)OCC(C)(C)C)[C@@H](O)[C@@]1(C)O` [Example 25, (2S,2′S)-Neopentyl 2,2′-((((2R,3R,4R,5R)-5-(2-Amino-8-chloro-6-methoxy-9H-purin-9-yl)-3,4-dihydroxy-4-methyltetrahydrofuran-2-yl)methoxy)phosphoryl)bis(azanediyl)dipropanoate] came in with an IC50 of 10 µM. In data set [2], this molecule had a CC50 at 72 h above 100 µM.

`COc1nc(N)nc2c1nc(I)n2[C@@H]1O[C@H](COP(=O)(N[C@@H](C)C(=O)OC2CCCCC2)N[C@@H](C)C(=O)OC2CCCCC2)[C@@H](O)[C@@]1(C)O` [Example 26, (2S,2′S)-Dicyclohexyl 2,2′-((((2R,3R,4R,5R)-5-(2-Amino-8-iodo-6-methoxy-9H-purin-9-yl)-3,4-dihydroxy-4-methyltetrahydrofuran-2-yl)methoxy)phosphoryl)bis(azanediyl)dipropanoate] had a 50% inhibitory concentration (IC50) in data set [1] of 0.13 µM. The CC50 at 72 h in data set [2] came out at 54 µM.

Source of the values: patent US9351989B2, “Substituted purine nucleosides, phosphoroamidate and phosphorodiamidate derivatives for treatment of viral infections” (INHIBITEX, INC., priority 2010, dated 2016).
